According to DBAASP:
≈ marks a conversion by molar mass, not a printed value.

Tests used:
Assay in all cases: ≥ marks a high value that may be exact or a test limit, other limits are often not marked, values filed in µg/mL are converted to µM
[1] = tested on: Staphylococcus aureus A170
[2] = tested on: Staphylococcus epidermidis
[3] = tested on: Klebsiella pneumoniae ATCC 700603
Pseudomonas aeruginosa = tested on: Pseudomonas aeruginosa
[4] = tested on: Pseudomonas aeruginosa CMCCB 1010
[5] = tested on: Pseudomonas aeruginosa ATCC 27853
Shigella dysenteriae = tested on: Shigella dysenteriae
[6] = tested on: Enterobacter cloacae ATCC 13047
Staphylococcus aureus 37 = tested on: Staphylococcus aureus 37
Staphylococcus aureus 10 = tested on: Staphylococcus aureus 10
[7] = tested on: Candida albicans ATCC 90028
[8] = tested on: Staphylococcus aureus ATCC 25923
Escherichia coli 117 = tested on: Escherichia coli 117
[9] = tested on: Candida parapsilosis ATCC 22019
Candida glabrata 090902 = tested on: Candida glabrata 090902
Nocardia asteroides = tested on: Nocardia asteroides
[10] = tested on: Enterobacter cloacae CGMCC 1.57
[11] = tested on: Psychrobacter faecalis X29
[12] = tested on: Enterococcus faecalis 981
[13] = tested on: Pseudomonas aeruginosa PAO1
Bacillus subtilis 168 = tested on: Bacillus subtilis 168
Klebsiella pneumoniae = tested on: Klebsiella pneumoniae
[14] = tested on: Escherichia coli BNCC 133264
Acinetobacter baumannii = tested on: Acinetobacter baumannii
[15] = tested on: Pseudomonas aeruginosa BNCC 125486
Listeria monocytogenes = tested on: Listeria monocytogenes
Escherichia coli = tested on: Escherichia coli
Escherichia coli K-12 = tested on: Escherichia coli K-12
Staphylococcus aureus = tested on: Staphylococcus aureus
[16] = tested on: Staphylococcus aureus BNCC 186335
[17] = tested on: Staphylococcus aureus USA 300
Escherichia coli W160-37 = tested on: Escherichia coli W160-37
[18] = tested on: Escherichia coli ATCC 2592
[19] = tested on: Proteus vulgaris ATCC 6380
[20] = tested on: Pseudomonas aeruginosa ATCC 9027
[21] = tested on: Candida albicans ATCC 36232
[22] = tested on: Staphylococcus aureus ATCC 6538
[23] = tested on: Micrococcus luteus ATCC 9341
Pseudomonas putida = tested on: Pseudomonas putida
[24] = tested on: Bacillus subtilis KCTC 1021
Candida albicans = tested on: Candida albicans
[25] = tested on: Klebsiella pneumoniae ATCC 10031
Serratia marcescens = tested on: Serratia marcescens
[26] = tested on: Shigella dysenteriae ATCC 9752
[27] = tested on: Salmonella enterica subsp. enterica serovar Typhimurium ATCC 14028
Saccharomyces cerevisiae = tested on: Saccharomyces cerevisiae
[28] = tested on: Proteus mirabilis ATCC 25933
[29] = tested on: Micrococcus luteus ATCC 4698
[30] = tested on: Staphylococcus epidermidis ATCC 12228

Q: For CC[C@H](C)[C@H](NC(=O)[C@@H]1CCCN1C(=O)[C@H](CC(C)C)NC(=O)[C@@H](N)CC(C)C)C(=O)N[C@H](C(=O)NCC(=O)N[C@@H](CC(N)=O)C(=O)N[C@@H](CC(C)C)C(=O)N[C@@H](CC(C)C)C(=O)N[C@@H](CCCCN)C(=O)N[C@@H](C)C(=O)N[C@@H](CC(C)C)C(=O)N[C@@H](CC(C)C)C(=O)O)C(C)C [LLPIVGNLLKALL], which MIC [1] is on record?
A: 7.26 µM (≈ 10 µg/mL)

Q: What about the MIC [2] of the same molecule?
A: 14.5 µM (≈ 20 µg/mL)

Q: CC[C@H](C)[C@H](N)C(=O)N[C@@H](CC(N)=O)C(=O)N[C@@H](CC(C)C)C(=O)N[C@@H](CCCCN)C(=O)N[C@@H](C)C(=O)N[C@H](C(=O)N[C@@H](C)C(=O)N1CCC[C@H]1C(=O)N[C@@H](CC(C)C)C(=O)N[C@@H](C)C(=O)N[C@@H](CCCCN)C(=O)N[C@@H](CCCCN)C(=O)N[C@@H](CC(C)C)C(=O)N[C@@H](CC(C)C)C(=O)O)[C@@H](C)CC [INLKAIAPLAKKLL] was tested. Which MIC [3] did it give?
A: 13.3 µM (≈ 20 µg/mL)

Q: And the MIC (Pseudomonas aeruginosa)?
A: 53.1 µM (≈ 80 µg/mL)

Q: And the MIC [4]?
A: 6.64 µM (≈ 10 µg/mL)

Q: What about the MIC [5] of the same molecule?
A: 6.64 µM (≈ 10 µg/mL)

Q: What about the MIC (Shigella dysenteriae) of the same molecule?
A: 6.64 µM (≈ 10 µg/mL)

Q: And the MIC [6]?
A: 26.6 µM (≈ 40 µg/mL)

Q: And the MIC (Staphylococcus aureus 37)?
A: ≥ 53.1 µM

Q: What about the MIC (Staphylococcus aureus 10) of the same molecule?
A: 26.6 µM (≈ 40 µg/mL)

Q: And the MIC [7]?
A: 13.3 µM (≈ 20 µg/mL)

Q: What about the MIC [8] of the same molecule?
A: 53.1 µM (≈ 80 µg/mL)

Q: And the MIC (Escherichia coli 117)?
A: ≥ 53.1 µM

Q: And the MIC [9]?
A: 13.3 µM (≈ 20 µg/mL)

Q: CC[C@H](C)[C@H](NC(=O)[C@H](CC(C)C)NC(=O)CNC(=O)[C@H](CO)NC(=O)[C@@H](NC(=O)[C@@H](N)Cc1ccccc1)[C@@H](C)CC)C(=O)NCC(=O)NCC(=O)N[C@@H](CC(C)C)C(=O)N[C@@H](CCSC)C(=O)N[C@@H](CCCCN)C(=O)N[C@@H](C)C(=O)N[C@@H](CC(C)C)C(N)=O [FISGLIGGLMKAL] was tested. Which MIC (Candida glabrata 090902) did it give?
A: ≥ 100 µM

Q: And the MIC (Nocardia asteroides)?
A: 25 µM (≈ 33 µg/mL)

Q: And the MIC [10]?
A: ≥ 400 µM

Q: And the MIC [11]?
A: ≥ 200 µM

Q: What about the MIC [8] of the same molecule?
A: 25 µM (≈ 33 µg/mL)

Q: And the MIC [12]?
A: ≥ 50 µM

Q: Which results are given for CC[C@H](C)[C@H](NC(=O)[C@H](CCCCN)NC(=O)[C@@H]1CCCN1C(=O)[C@@H](NC(=O)[C@H](CC(C)C)NC(=O)[C@H](CCCCN)NC(=O)[C@H](CC(C)C)NC(=O)[C@@H](NC(=O)[C@H](CO)NC(=O)CNC(=O)[C@H](Cc1ccccc1)NC(=O)[C@@H](N)Cc1ccccc1)C(C)C)[C@@H](C)CC)C(=O)N[C@@H](CC(C)C)C(N)=O [FFGSVLKLIPKIL]?
A: MIC [13]: > 100 µM; MIC (Bacillus subtilis 168): 6.25 µM (≈ 9.21 µg/mL); MIC (Klebsiella pneumoniae): > 43.4 µM; MIC [14]: ≥ 43.4 µM; MIC (Acinetobacter baumannii): ≥ 43.4 µM; MIC [15]: ≥ 86.8 µM; MIC (Listeria monocytogenes): 1.36 µM (≈ 2 µg/mL); MIC (Escherichia coli): 21.7 µM (≈ 32 µg/mL); MIC (Escherichia coli K-12): 25 µM (≈ 36.8 µg/mL); MIC (Staphylococcus aureus): 1.36 µM (≈ 2 µg/mL); MIC [16]: 1.36 µM (≈ 2 µg/mL); MIC [17]: 3.12 µM (≈ 4.6 µg/mL)

Q: For CC[C@H](C)[C@H](NC(=O)[C@H](CCCCN)NC(=O)[C@H](CCCCN)NC(=O)[C@H](Cc1c[nH]c2ccccc12)NC(=O)[C@H](CCCCN)NC(=O)[C@H](CO)NC(=O)[C@H](CC(C)C)NC(=O)[C@H](Cc1ccccc1)NC(=O)[C@@H](NC(=O)[C@H](CCCCN)NC(=O)[C@H](CC(C)C)NC(=O)[C@H](CC(C)C)NC(=O)[C@H](CCCCN)NC(=O)[C@@H]1CCCN1)[C@@H](C)O)C(=O)NCC(=O)O [PKLLKTFLSKWKKIG], which MIC (Escherichia coli W160-37) is on record?
A: 22 µM (≈ 39.3 µg/mL)

Q: What about the MIC (Staphylococcus aureus) of the same molecule?
A: 17 µM (≈ 30.4 µg/mL)

Q: What does the source list for CC[C@H](C)[C@H](NC(=O)[C@H](CCCCN)NC(=O)[C@@H]1CCCN1C(=O)[C@H](CC(C)C)NC(=O)[C@H](Cc1ccccc1)NC(=O)[C@H](CC(N)=O)NC(=O)[C@H](C)N)C(=O)N[C@@H](Cc1ccccc1)C(=O)N[C@@H](CS)C(=O)N[C@@H](CCCCN)C(=O)N[C@H](C(=O)N[C@H](C(=O)N[C@@H](CCCN=C(N)N)C(=O)N[C@@H](CCCCN)C(=O)N[C@@H](CS)C(N)=O)[C@@H](C)O)[C@@H](C)CC [ANFLPKIFCKITRKC]?
A: MIC [18]: 28.1 µM (≈ 50 µg/mL); MIC [19]: ≥ 56.1 µM; MIC [20]: 28.1 µM (≈ 50 µg/mL); MIC [21]: 28.1 µM (≈ 50 µg/mL); MIC [22]: 56.1 µM (≈ 99.9 µg/mL); MIC (Staphylococcus aureus): > 56.1 µM; MIC [23]: 14 µM (≈ 25 µg/mL)

Q: For CC[C@H](C)[C@H](NC(=O)CN)C(=O)N[C@@H](CCSC)C(=O)N[C@@H](CO)C(=O)N[C@H](C(=O)N[C@H](C(=O)N[C@@H](CCCCN)C(=O)N[C@@H](CC(=O)O)C(=O)N[C@H](C(=O)N[C@@H](C)C(=O)N[C@@H](CCCCN)C(=O)N[C@H](C(=O)N[C@@H](C)C(=O)N[C@@H](C)C(=O)N[C@@H](CCCCN)C(=O)N[C@@H](CCC(=O)O)C(=O)N[C@@H](C)C(=O)N[C@@H](C)C(=O)N[C@@H](CCCCN)C(=O)NCC(=O)N[C@@H](C)C(=O)N[C@@H](CC(C)C)C(=O)N[C@@H](CO)C(=O)N[C@H](C(=O)N[C@@H](CC(C)C)C(=O)N[C@@H](CO)C(=O)N[C@H]1CSSC[C@@H](C(=O)O)NC(=O)[C@H]([C@@H](C)O)NC(=O)[C@H](CCCCN)NC(=O)[C@H](C)NC(=O)[C@H](CC(C)C)NC(=O)[C@H](CCCCN)NC1=O)[C@@H](C)O)[C@@H](C)O)C(C)C)C(C)C)[C@@H](C)CC [GIMSIVKDVAKTAAKEAAKGALSTLSCKLAKTC], which MIC (Pseudomonas putida) is on record?
A: 15.1 µM (≈ 50 µg/mL)

Q: And the MIC [20]?
A: 15.1 µM (≈ 50 µg/mL)

Q: What about the MIC [24] of the same molecule?
A: 3.02 µM (≈ 9.99 µg/mL)

Q: And the MIC (Candida albicans)?
A: > 60.4 µM

Q: What about the MIC [25] of the same molecule?
A: 7.56 µM (≈ 25 µg/mL)

Q: What about the MIC (Serratia marcescens) of the same molecule?
A: ≥ 60.4 µM

Q: What about the MIC [26] of the same molecule?
A: 7.56 µM (≈ 25 µg/mL)

Q: What about the MIC (Escherichia coli) of the same molecule?
A: 22.7 µM (≈ 75 µg/mL)

Q: And the MIC [27]?
A: 45.3 µM (≈ 150 µg/mL)

Q: And the MIC (Saccharomyces cerevisiae)?
A: ≥ 60.4 µM

Q: What about the MIC [28] of the same molecule?
A: ≥ 60.4 µM

Q: What about the MIC [29] of the same molecule?
A: 0.755 µM (≈ 2.5 µg/mL)

Q: What about the MIC [30] of the same molecule?
A: 3.02 µM (≈ 9.99 µg/mL)
